Results published in patent US20230172206A1 (BASF SE, priority 2020, published 2023).

How the values were obtained:
[1] = tested on: Phakopsora pachyrhizi (F129L); experiment: Protective control of soybean rust on soybeans (PHAKPA P6); format: in vivo; settings: for % PHAKPA (F129L) Disease level P6 at 4 ppm: protective P6, 4 ppm; for % PHAKPA (F129L) Disease level P6 at 16 ppm: protective P6, 16 ppm
[2] = tested on: Phakopsora pachyrhizi (F129L); experiment: Protective control of soybean rust on soybeans (PHAKPA P2); format: in vivo; settings: for % PHAKPA (F129L) Disease level P2 at 4 ppm: protective P2, 4 ppm; for % PHAKPA (F129L) Disease level P2 at 16 ppm: protective P2, 16 ppm

Structure (SMILES)	% PHAKPA (F129L) Disease level P6 at 4 ppm ([1]; soybean rust F129L isolate) [%]	% PHAKPA (F129L) Disease level P6 at 16 ppm ([1]; soybean rust F129L isolate) [%]	% PHAKPA (F129L) Disease level P2 at 4 ppm ([2]; soybean rust F129L isolate) [%]	% PHAKPA (F129L) Disease level P2 at 16 ppm ([2]; soybean rust F129L isolate) [%]	% PHAKPA (F129L) Disease level P6 at 4 ppm ([1]; F129L isolate) [%]	% PHAKPA (F129L) Disease level P6 at 16 ppm ([1]; F129L isolate) [%]	% PHAKPA (F129L) Disease level P2 at 4 ppm ([2]; F129L isolate) [%]	% PHAKPA (F129L) Disease level P2 at 16 ppm ([2]; F129L isolate) [%]
CO/N=C(/C(=O)OC)c1cccc(C)c1CO/N=C(\C)c1ccccc1OC(F)F [compound 253]	100	57	100	87	–	–	–	–
CO/N=C(/C(=O)OC)c1cccc(C)c1CO/N=C(\C)c1cc(F)ccc1Br [compound 254]	100	100	100	77	–	–	–	–
CNC(=O)/C(=N/OC)c1cccc(C)c1CO/N=C(\C)c1ccccc1C(C)C [compound 220]	100	77	90	30	–	–	–	–
CNC(=O)/C(=N/OC)c1cccc(C)c1CO/N=C(/c1ccccc1)C(F)(F)F [compound 458]	–	–	–	–	83	50	93	57
CNC(=O)/C(=N/OC)c1cccc(C)c1CO/N=C(\C)c1ccccc1C(F)F [compound 298]	97	37	63	7	–	–	–	–
CO/N=C(/C(=O)OC)c1cccc(C)c1CO/N=C(\C)c1ccccc1CC(F)(F)F [compound 222]	100	93	100	57	–	–	–	–
CO/C=C(/C(=O)OC)c1cccc(C)c1CO/N=C(\C)c1ccc(Cl)c(F)c1OC(F)(F)F [compound 452]	–	–	–	–	70	14	60	6
CNC(=O)/C(=C/OC)c1cccc(C)c1CO/N=C(\C)c1cccc(C(F)(F)F)c1 [compound 232]	100	83	100	73	–	–	–	–
CO/N=C(/C(=O)OC)c1cccc(C)c1CO/N=C(\C)c1cccc(Cl)c1C(F)(F)F [compound 421]	–	–	–	–	87	57	100	33
CO/N=C(/C(=O)OC)c1cccc(C)c1CO/N=C(\C)c1c(F)ccc(F)c1OC(F)(F)F [compound 366]	83	12	53	13	–	–	–	–
CNC(=O)/C(=N/OC)c1cccc(C)c1CO/N=C(\C)c1ccc(F)cc1OC(F)(F)F [compound 378]	17	1	18	1	–	–	–	–
CNC(=O)/C(=N/OC)c1cccc(C)c1CO/N=C(/c1ccccc1)C(C)C [compound 389]	–	–	–	–	43	3	28	4
CNC(=O)/C(=N/OC)c1cccc(C)c1CO/N=C(\C)c1ccc(Cl)cc1OC(F)(F)F [compound 375]	40	6	47	8	–	–	–	–
CNC(=O)/C(=N/OC)c1cccc(C)c1CO/N=C(\C)c1c(Cl)cccc1C(F)(F)F [compound 290]	83	21	92	14	–	–	–	–
CNC(=O)/C(=N/OC)c1cccc(C)c1CO/N=C(\C)c1ccc(F)cc1F [compound 267]	10	4	2	0	–	–	–	–
CNC(=O)/C(=N/OC)c1cccc(C)c1CO/N=C(\C)c1ccc(/C(C)=N\OC)cc1C(F)(F)F [compound 420]	–	–	–	–	12	1	8	0
CNC(=O)/C(=N/OC)c1cccc(C)c1CO/N=C(\C)c1ccc(F)cc1C(F)(F)F [compound 260]	22	0	22	0	–	–	–	–
C=C(C)c1cccc(/C(=N\OC)C(=O)NC)c1CO/N=C(\C)c1ccccc1 [compound 399]	–	–	–	–	90	15	67	8
CNC(=O)/C(=N/OC)c1cccc(C)c1CO/N=C(\C)c1ccc(-c2ccc(F)cc2)cc1C(F)(F)F [compound 426]	–	–	–	–	27	10	7	1
CO/N=C(/C(=O)OC)c1cccc(C)c1CO/N=C(\C)c1c(F)cccc1C(F)(F)F [compound 365]	97	43	77	15	–	–	–	–
CNC(=O)/C(=N/OC)c1cccc(C)c1CO/N=C(\C)c1ccc(F)cc1Cl [compound 262]	47	4	63	1	–	–	–	–
CO/N=C(/C(=O)OC)c1cccc(C)c1CO/N=C(\C)c1ccc(OC)cc1C(F)(F)F [compound 328]	23	5	33	8	–	–	–	–
